From ChEMBL document CHEMBL4011614 (J Med Chem, 2017)
Active and inactive are the calls of the source. No cut-off for these calls is given here.

How the values were obtained:
CREB-binding protein = CREB-binding protein (Homo sapiens, UniProt Q92793); test: Inhibition of CREBBP (unknown origin) by FRET assay
[1] = biological target: T1, Bromodomain-containing protein 4 (Homo sapiens, UniProt O60885); test: Inhibition of BRD4 (unknown origin) by fluorescence polarization assay
Homo sapiens = organism: Homo sapiens; test: Selectivity ratio of IC50 for BRD4 (unknown origin) to IC50 for CREBBP (unknown origin)
[2] = biological target: T1, Bromodomain-containing protein 4; test: Binding affinity to BRD4 (unknown origin) at 75 to 100 uM by isothermal titration assay
[3] = Passive permeability of the compound at 2 uM by cell-based assay; assay type: physicochemical; conditions: not told; read-out: permeability
[4] = Intrinsic clearance in human microsomes at 1 uM; assay type: ADME, Microsome
[5] = biological target: T2, Alpha-1A adrenergic receptor (Homo sapiens, UniProt P35348); test: Displacement of [3H]prazosin from recombinant human adrenergic A1a receptor after 60 mins by scintillation counting method
T2 sequence (P35348 whole entry): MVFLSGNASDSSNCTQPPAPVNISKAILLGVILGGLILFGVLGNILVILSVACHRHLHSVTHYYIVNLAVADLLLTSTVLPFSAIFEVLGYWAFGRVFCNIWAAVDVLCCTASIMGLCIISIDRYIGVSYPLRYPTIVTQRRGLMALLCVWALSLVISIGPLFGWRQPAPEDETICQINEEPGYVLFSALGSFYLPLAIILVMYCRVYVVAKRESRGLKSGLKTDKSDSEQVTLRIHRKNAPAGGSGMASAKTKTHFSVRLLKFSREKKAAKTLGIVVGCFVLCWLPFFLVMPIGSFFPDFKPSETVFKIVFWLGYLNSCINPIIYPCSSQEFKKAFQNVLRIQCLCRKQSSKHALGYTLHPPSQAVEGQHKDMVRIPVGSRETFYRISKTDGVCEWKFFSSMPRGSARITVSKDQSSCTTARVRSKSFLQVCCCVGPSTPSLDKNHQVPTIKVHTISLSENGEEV

[6] = biological target: Voltage-gated L-type calcium channel (Homo sapiens, UniProt Q13936+Q13698+Q01668+O60840); test: Inhibition of L-type calcium channel (unknown origin)
[7] = biological target: Histone acetyltransferase p300 (Homo sapiens) (UniProt Q09472); test: Inhibition of human EP300 (1040 to 1161 residues) expressed in bacterial expression system at 10 uM by bromoscan assay
Chain of Histone acetyltransferase p300 (Homo sapiens) (Q09472 whole entry, the tested form may be a part): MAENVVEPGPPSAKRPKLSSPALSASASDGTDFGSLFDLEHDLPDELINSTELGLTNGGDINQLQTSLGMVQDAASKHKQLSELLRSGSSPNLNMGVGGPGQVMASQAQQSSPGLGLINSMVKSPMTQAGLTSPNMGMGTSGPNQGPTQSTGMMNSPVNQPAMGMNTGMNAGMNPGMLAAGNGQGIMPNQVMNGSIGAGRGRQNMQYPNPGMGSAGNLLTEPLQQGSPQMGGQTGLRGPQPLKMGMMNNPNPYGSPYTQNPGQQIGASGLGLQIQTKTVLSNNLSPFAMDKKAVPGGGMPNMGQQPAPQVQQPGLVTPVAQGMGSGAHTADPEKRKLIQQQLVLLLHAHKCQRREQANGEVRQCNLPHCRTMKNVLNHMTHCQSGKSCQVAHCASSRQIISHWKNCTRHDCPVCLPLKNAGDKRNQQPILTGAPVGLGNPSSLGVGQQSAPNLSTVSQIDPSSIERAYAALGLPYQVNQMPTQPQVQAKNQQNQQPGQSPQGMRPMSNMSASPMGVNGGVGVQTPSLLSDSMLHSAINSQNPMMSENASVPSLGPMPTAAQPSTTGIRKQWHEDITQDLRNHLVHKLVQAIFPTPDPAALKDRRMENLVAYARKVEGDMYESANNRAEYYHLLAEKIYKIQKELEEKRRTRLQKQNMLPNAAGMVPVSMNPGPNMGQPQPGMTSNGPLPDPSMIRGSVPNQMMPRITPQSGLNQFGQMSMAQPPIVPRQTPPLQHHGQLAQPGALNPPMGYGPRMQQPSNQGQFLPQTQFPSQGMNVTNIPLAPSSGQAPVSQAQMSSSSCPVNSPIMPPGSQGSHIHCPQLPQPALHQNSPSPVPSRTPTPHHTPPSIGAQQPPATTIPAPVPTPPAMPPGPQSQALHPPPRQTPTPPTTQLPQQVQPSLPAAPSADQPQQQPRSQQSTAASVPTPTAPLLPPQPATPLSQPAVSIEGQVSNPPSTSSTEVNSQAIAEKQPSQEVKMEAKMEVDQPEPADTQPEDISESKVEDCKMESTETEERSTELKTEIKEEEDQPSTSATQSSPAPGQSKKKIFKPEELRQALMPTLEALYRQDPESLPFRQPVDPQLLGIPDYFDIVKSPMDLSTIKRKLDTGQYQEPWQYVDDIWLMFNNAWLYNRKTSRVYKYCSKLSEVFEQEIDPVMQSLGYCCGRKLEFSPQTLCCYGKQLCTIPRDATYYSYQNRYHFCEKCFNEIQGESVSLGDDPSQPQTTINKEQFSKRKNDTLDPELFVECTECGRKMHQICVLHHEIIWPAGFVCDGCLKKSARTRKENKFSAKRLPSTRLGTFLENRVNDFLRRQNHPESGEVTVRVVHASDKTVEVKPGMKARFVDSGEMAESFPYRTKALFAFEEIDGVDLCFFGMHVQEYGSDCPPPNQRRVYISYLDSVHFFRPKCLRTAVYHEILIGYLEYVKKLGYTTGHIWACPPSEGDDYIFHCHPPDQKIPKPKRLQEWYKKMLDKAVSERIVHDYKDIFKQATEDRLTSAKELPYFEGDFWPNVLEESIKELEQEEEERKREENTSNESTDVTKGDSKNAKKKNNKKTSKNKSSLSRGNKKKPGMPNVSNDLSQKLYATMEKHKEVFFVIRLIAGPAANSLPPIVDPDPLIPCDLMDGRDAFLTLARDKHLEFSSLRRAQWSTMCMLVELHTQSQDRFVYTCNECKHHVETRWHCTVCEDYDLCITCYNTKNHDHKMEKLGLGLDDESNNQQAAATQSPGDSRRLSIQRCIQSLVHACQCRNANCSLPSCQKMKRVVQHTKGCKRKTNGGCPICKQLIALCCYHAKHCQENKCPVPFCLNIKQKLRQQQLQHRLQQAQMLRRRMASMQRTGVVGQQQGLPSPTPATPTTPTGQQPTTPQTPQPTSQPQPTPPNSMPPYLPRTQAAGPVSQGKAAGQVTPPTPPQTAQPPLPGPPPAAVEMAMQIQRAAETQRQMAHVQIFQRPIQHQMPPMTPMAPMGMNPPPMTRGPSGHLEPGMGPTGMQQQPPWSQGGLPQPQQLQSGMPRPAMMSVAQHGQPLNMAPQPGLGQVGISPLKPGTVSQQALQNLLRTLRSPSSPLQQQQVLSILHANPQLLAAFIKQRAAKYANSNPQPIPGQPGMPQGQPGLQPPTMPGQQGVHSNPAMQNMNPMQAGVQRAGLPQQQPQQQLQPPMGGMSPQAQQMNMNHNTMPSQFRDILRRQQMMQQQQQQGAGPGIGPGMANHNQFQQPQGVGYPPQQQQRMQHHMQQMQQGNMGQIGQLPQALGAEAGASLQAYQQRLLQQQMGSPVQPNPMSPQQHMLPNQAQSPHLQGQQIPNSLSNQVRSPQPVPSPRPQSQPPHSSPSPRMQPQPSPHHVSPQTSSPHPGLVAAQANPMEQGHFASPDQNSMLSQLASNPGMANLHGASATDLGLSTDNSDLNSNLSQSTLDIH

Chain of CREB-binding protein (Q92793 whole entry): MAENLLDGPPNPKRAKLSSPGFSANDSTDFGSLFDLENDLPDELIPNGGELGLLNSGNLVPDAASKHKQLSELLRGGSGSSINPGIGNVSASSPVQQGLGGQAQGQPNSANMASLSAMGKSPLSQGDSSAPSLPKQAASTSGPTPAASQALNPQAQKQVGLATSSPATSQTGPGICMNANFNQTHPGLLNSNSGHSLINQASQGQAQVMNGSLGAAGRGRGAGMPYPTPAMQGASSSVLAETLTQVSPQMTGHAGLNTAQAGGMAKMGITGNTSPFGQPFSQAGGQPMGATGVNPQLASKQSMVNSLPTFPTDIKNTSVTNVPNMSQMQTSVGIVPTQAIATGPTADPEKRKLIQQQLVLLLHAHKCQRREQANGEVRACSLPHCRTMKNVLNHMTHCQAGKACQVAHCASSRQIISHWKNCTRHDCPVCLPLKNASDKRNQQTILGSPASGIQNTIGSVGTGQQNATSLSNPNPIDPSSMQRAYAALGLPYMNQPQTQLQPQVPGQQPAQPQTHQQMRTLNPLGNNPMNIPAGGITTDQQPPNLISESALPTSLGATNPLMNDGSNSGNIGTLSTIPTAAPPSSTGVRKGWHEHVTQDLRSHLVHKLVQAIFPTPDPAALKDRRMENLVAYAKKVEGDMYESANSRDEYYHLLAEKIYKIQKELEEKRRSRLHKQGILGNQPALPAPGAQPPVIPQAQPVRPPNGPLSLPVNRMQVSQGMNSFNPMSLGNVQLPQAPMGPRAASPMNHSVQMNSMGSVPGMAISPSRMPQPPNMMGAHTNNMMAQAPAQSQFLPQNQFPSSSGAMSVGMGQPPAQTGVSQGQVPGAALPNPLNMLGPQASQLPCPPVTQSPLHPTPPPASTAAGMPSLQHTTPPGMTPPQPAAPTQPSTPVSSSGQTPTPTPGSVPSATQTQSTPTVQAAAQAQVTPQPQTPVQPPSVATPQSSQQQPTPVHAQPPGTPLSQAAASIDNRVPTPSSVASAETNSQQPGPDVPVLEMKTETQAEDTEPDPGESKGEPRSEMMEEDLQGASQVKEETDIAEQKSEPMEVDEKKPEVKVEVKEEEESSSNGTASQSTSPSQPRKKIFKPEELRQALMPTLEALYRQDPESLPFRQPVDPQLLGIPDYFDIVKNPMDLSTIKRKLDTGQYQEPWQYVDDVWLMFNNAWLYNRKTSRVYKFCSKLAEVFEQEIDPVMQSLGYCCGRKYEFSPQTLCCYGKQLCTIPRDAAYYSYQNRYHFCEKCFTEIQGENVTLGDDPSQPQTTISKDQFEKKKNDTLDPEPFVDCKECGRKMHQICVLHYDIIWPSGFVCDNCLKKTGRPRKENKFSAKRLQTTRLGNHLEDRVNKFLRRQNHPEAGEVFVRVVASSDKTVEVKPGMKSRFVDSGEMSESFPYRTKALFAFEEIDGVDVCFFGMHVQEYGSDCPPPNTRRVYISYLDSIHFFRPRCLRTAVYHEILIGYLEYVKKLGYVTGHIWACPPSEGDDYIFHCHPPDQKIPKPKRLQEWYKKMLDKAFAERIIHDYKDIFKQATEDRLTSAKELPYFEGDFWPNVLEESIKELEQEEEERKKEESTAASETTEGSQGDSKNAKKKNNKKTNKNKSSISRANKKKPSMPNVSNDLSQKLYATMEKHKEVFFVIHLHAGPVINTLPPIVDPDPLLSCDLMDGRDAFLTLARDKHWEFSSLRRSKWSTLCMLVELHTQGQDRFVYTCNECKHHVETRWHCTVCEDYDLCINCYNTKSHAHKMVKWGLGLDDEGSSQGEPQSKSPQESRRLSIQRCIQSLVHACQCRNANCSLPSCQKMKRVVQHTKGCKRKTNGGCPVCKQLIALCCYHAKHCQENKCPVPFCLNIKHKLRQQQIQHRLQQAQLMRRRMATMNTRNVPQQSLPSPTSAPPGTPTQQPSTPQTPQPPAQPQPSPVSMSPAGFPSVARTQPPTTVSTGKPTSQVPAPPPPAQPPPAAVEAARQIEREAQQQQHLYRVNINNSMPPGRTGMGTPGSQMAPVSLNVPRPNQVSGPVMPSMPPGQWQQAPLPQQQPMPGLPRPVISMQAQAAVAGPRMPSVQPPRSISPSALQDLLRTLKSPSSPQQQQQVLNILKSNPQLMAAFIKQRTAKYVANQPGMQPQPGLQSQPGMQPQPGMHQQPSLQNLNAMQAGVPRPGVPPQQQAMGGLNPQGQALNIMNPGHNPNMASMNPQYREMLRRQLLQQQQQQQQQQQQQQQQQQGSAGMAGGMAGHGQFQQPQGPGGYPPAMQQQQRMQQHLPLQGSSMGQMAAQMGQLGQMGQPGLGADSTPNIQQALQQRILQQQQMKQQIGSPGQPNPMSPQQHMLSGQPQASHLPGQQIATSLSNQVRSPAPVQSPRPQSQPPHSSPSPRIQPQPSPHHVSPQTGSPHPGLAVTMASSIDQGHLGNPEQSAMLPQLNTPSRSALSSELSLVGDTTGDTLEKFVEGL

Row | SMILES | IC50 (CREB-binding protein) | IC50 [1] | Ratio IC50 (Homo sapiens) | also measured
1 | Cc1nc(C)n(-c2ccc3c(c2)nc(CCc2ccccc2)n3CCN2CCOCC2)n1 | > 30 µM | > 120 µM |  | 
2 | Cc1noc(C)c1-c1ccc2c(c1)nc1n2[C@H](CN2CCOCC2)CC1Cc1ccccc1 (single isomer, unassigned; 32) [listing 1 of 2 here] |  |  | > 62 | 
3 | COc1cc(-c2ccc3c(c2)nc(CCc2ccccc2)n3CCN2CCOCC2)cccc1=O | 0.21 µM | 0.35 µM |  | 
4 | Cc1noc(C)c1-c1ccc2c(c1)nc(CCc1ccccn1)n2CCN1CCOCC1 | 0.33 µM | 3.2 µM | 10 | 
5 | Cc1noc(C)c1-c1ccc2c(c1)nc(CCc1ccc(N)cc1)n2CCN1CCOCC1 | 0.09 µM | 3.4 µM | 38 | 
6 | Cc1noc(C)c1-c1ccc2c(c1)nc(CCc1ccc3ccccc3n1)n2CCN1CCOCC1 | 0.16 µM | 4.9 µM | 31 | 
7 | Cc1noc(C)c1-c1ccc2c(c1)nc(CCc1cccnc1)n2CCN1CCOCC1 | 0.78 µM | 5.8 µM | 7.4 | 
8 | Cc1noc(C)c1-c1ccc2c(c1)nc(CCc1ccccc1)n2CCN1CCOCC1 | 0.24 µM | 4.1 µM | 17 | 
9 | Cc1noc(C)c1-c1ccc2c(c1)nc1n2[C@H](CN2CCOCC2)CC1Cc1ccccc1 (single isomer, unassigned; 32) [listing 2 of 2 here] | 1.3 µM | > 80 µM |  | 
10 | COc1cccc(CCc2nc3cc(-c4c(C)noc4C)ccc3n2CCN2CCOCC2)c1 | 0.31 µM | 4.6 µM | 15 | 
11 | CCCCCOc1ccc(CCc2nc3cc(-c4c(C)noc4C)ccc3n2CCN2CCOCC2)cc1 | 0.69 µM | 6.9 µM | 10 | 
12 | CCCOc1ccc(CCc2nc3cc(-c4c(C)noc4C)ccc3n2CCN2CCOCC2)cc1 |  |  | 62 | Activity [2]: inactive; Papp at 2 µM [3]: 7.9 ×10⁻⁶ cm/s; microsomal CLint at 1 µM [4]: > 300 µL/min/mg; IC50 [5]: 0.62 µM; IC50 [6]: 3 µM; inhibition [7]: Active

Further lines, with some results ahead:

Row | IC50 (CREB-binding protein) | IC50 [1] | Ratio IC50 (Homo sapiens) | SMILES | also measured
13 | 0.4 µM | 14.4 µM | 36 | Cc1noc(C)c1-c1ccc2c(c1)nc(COc1ccccc1)n2CCN1CCOCC1 | 
14 |  |  | 4 | Cc1noc(C)c1-c1ccc2c(c1)nc1n2[C@H](CN2CCOCC2)CC1Cc1ccccc1 (single isomer, unassigned; 31) | 
15 | 0.47 µM | 9.4 µM | 20 | COc1ccc(CCc2nc3cc(-c4c(C)noc4C)ccc3n2CCN2CCOCC2)cc1OC | 
16 | 0.5 µM | > 120 µM | > 240 | COc1ccc(CCc2c(C#N)c3cc(-c4c(C)noc4C)ccc3n2CCN2CCOCC2)cc1 | 
17 | 0.26 µM | 11.2 µM | 43 | CCCCOc1ccc(CCc2nc3cc(-c4c(C)noc4C)ccc3n2CCN2CCOCC2)cc1 | 
18 | 0.31 µM | 6 µM |  | CCc1noc(C)c1-c1ccc2c(c1)nc(CCc1ccccc1)n2CCN1CCOCC1 | 
19 | 0.13 µM | 6.6 µM | 51 | CCOc1ccc(CCc2nc3cc(-c4c(C)noc4C)ccc3n2CCN2CCOCC2)cc1 | 
20 | 2.5 µM | 16.8 µM | 7 | Cc1noc(C)c1-c1ccc2c(c1)nc(CCc1cncc3ccccc13)n2CCN1CCOCC1 | 
